Series [1] has as its target T1, Acetylcholinesterase (Homo sapiens, UniProt P22303). Description: Binding affinity to AChE (unknown origin) using acetylthiocholine iodide as substrate assessed as inhibition constant by Ellman's method. On the technique in general: In Ellman's method for cholinesterases, released thiocholine reacts with DTNB.
Series [2] can be described thus: In vivo inhibition of AChE activity in Sprague-Dawley rat brain assessed as effective dose. In kind it is functional.
The nature of series [3]: Acute toxicity in ip dosed Sprague-Dawley rat assessed as lethal dose. In kind it is organism-based. The note with it: in vivo.
In series [4] the test system is HT-29. Description: Antiproliferative activity against human HT-29 cells assessed as reduction in cell growth incubated for 24 hrs. It counts as functional, cell-based. The following applies: HT-29, 24 h.
The test system of series [5] is MCF7. The series can be described thus: Antiproliferative activity against human MCF7 cells assessed as reduction in cell growth incubated for 24 hrs. It counts as functional, cell-based. The following applies: MCF7, 24 h.
The subject of series [6] is NCI-H460. Description: Antiproliferative activity against human NCI-H460 cells assessed as reduction in cell growth incubated for 24 hrs. The note with it: NCI-H460, 24 h. It counts as functional, cell-based.
In series [7] the test system is Caco-2. The series can be described thus: Antiproliferative activity against human Caco-2 cells assessed as reduction in cell growth incubated for 24 hrs. The note with it: Caco-2, 24 h. It counts as functional, cell-based.
Series [8] has as its target Histone deacetylase 1 (Homo sapiens, UniProt Q13547). Description: Inhibition of human recombinant HDAC1 using Ac-Leu-Gly-Lys(Ac)-AMC as substrate incubated for 30 mins by EnSpire plate reader analysis.
For series [9], the target named is Histone deacetylase 2 (Homo sapiens, UniProt Q92769).
The target in series [10] is Histone deacetylase 4 (Homo sapiens, UniProt P56524). The series can be described thus: Inhibition of human recombinant HDAC4 using Ac-Leu-Gly-Lys(Tfa)-AMC as substrate incubated for 30 mins by EnSpire plate reader analysis.
The target of series [11] is Histone deacetylase 5 (Homo sapiens, UniProt Q9UQL6). The series can be described thus: Inhibition of human recombinant HDAC5 using Ac-Leu-Gly-Lys(Tfa)-AMC as substrate incubated for 30 mins by EnSpire plate reader analysis.
Series [12] deals with Protein deacetylase HDAC6 (Homo sapiens, UniProt Q9UBN7). Description: Inhibition of human recombinant HDAC6 using Ac-Leu-Gly-Lys(Ac)-AMC as substrate incubated for 30 mins by EnSpire plate reader analysis.
The target in series [13] is Interstitial collagenase (Homo sapiens, UniProt P03956). The series can be described thus: Inhibition of MMP-1 (unknown origin).
The subject of series [14] is HT-1080. The series can be described thus: Cytotoxicity against human HT-1080 cells assessed as reduction in cell growth by MTT assay. In kind it is functional, cell-based.
In series [15] the test system is MG-22A. Description: Cytotoxicity against mouse MG-22A cells assessed as reduction in cell growth by MTT assay. It counts as functional, cell-based. For orientation: Tetrazolium assays rely on reduction of a dye to a coloured formazan, in cell work by metabolically active cells.
Series [16] concerns Mus musculus. The series can be described thus: Antiinflammatory activity against carrageenin-induced paw edema AKR mouse model assessed as inhibition of CPE at 0.01 micromol/kg, ip relative to control. It counts as functional. Also noted: scale not given: the % may be the effect or the level left. The following applies: dose 0.01 µmol/kg. (In the carrageenan paw model, swelling and tenderness develop within hours.)

Series [17] is described as follows: Inhibition of soya bean lipoxygenase. Also noted: species or system Glycine max.
In series [18] the test system is Mythimna separata. Description: Toxicity in Mythimna separata assessed as lethal dose. It counts as organism-based.
For series [19], the system named is Plutella xylostella. Description: Toxicity in Plutella xylostella assessed as lethal dose. In kind it is organism-based.
The subject of series [20] is Enterococcus durans. The series can be described thus: Antibacterial activity against Enterococcus durans B-603 (all Russian collections of micro-organism) assessed as reduction in bacterial growth incubated for 24 hrs by broth micro-dilution method. In kind it is functional.
The test system of series [21] is Bacillus subtilis. Description: Antibacterial activity against Bacillus subtilis B-407 (all Russian collections of micro-organism) assessed as reduction in bacterial growth incubated for 24 hrs by broth micro-dilution method. In kind it is functional.
Series [22] deals with T1, Acetylcholinesterase. Description: Inhibition of AChE (unknown origin) using acetylthiocholine iodide as substrate by Ellman's method.
The subject of series [23] is Plasmodium falciparum. The series can be described thus: Antimalarial activity against chloroquine-sensitive Plasmodium falciparum NF54 assessed as reduction in parasite growth. It counts as functional, organism-based.
Series [24] has as its system Plasmodium falciparum. The series can be described thus: Antimalarial activity against […] Plasmodium falciparum Dd2 assessed as reduction in parasite growth. In kind it is functional, organism-based.
Series [25] in a line: Antiproliferative activity against human WHCO1 cells assessed as reduction in cell viability incubated for 48 hrs by MTT assay. It counts as functional, cell-based. The note with it: WHCO1, 48 h.
The test system of series [26] is HCT-8. The series can be described thus: Cytotoxicity against human HCT-8 cells assessed as inhibition of cell growth at 5 ug/ml relative to control. In kind it is functional.
In series [27] the test system is Bel-7402. Description: Cytotoxicity against human Bel-7402 cells assessed as inhibition of cell growth at 5 ug/ml relative to control. In kind it is functional.
For series [28], the system named is A549. Description: Antiproliferative activity against human A549 cells. It counts as functional, cell-based.
The test system of series [29] is HepG2. The series can be described thus: Antiproliferative activity against human HepG2 cells. In kind it is functional, cell-based.
Series [30] relates to Tetranychus cinnabarinus. Description: Toxicity in Tetranychus cinnabarinus assessed as lethal dose. It counts as organism-based.
In series [31] the test system is Escherichia coli. The series can be described thus: Antibacterial activity against Escherichia coli B-1238 (all Russian collections of micro-organism) assessed as reduction in bacterial growth by broth micro-dilution method. In kind it is functional.
Series [32] deals with MDA-MB-435. Description: Antiproliferative activity against human MDA-MB-435 cells assessed as reduction in cell viability incubated for 24 hrs by MTT assay. It counts as functional, cell-based. The following applies: MDA-MB-435, 24 h.
Series [33] relates to HeLa. The series can be described thus: Antiproliferative activity against human Hela cells assessed as reduction in cell viability incubated for 24 hrs by MTT assay. In kind it is functional, cell-based.
The subject of series [34] is HT-29. Description: Antiproliferative activity against human HT-29 cells assessed as reduction in cell viability incubated for 24 hrs by MTT assay. In kind it is functional, cell-based. The note with it: HT-29, 24 h.

The source of these data is ChEMBL document CHEMBL6177939, “The role of silicon in drug discovery: a review” (RSC Med Chem, 2024).

SMILES strings stand for the structures. In brackets after ≈: the same amount, converted by molar mass.

T1 sequence (P22303 whole entry): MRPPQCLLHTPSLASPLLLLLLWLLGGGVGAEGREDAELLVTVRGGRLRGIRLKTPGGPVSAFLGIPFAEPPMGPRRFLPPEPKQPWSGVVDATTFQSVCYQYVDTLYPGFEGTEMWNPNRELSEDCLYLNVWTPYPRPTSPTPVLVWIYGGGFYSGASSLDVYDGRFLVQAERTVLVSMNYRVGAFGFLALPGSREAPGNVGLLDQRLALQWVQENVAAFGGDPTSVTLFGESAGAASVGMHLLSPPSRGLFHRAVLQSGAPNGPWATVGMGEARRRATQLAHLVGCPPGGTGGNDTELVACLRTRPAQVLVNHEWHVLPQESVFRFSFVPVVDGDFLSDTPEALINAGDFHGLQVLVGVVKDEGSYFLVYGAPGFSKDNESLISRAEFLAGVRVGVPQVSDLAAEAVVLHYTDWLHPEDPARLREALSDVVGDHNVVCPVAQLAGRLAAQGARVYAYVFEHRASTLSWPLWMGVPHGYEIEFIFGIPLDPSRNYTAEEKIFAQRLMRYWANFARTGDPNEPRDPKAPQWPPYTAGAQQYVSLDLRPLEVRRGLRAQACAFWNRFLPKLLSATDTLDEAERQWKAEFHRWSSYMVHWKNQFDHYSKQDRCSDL
Sequence of Histone deacetylase 1 (Q13547 whole entry): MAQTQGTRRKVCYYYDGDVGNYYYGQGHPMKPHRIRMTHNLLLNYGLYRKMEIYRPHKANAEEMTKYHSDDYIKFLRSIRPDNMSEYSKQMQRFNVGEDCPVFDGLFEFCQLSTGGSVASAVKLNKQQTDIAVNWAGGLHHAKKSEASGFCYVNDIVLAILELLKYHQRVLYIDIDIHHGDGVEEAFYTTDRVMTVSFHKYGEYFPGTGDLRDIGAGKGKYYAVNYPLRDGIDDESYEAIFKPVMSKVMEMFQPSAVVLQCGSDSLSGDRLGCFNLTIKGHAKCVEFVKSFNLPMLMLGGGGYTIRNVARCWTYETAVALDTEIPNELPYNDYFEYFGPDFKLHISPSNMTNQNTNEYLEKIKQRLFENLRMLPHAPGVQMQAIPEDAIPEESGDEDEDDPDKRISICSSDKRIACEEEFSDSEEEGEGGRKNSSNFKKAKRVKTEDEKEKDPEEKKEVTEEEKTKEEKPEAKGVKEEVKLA
Sequence of Histone deacetylase 2 (Q92769 whole entry): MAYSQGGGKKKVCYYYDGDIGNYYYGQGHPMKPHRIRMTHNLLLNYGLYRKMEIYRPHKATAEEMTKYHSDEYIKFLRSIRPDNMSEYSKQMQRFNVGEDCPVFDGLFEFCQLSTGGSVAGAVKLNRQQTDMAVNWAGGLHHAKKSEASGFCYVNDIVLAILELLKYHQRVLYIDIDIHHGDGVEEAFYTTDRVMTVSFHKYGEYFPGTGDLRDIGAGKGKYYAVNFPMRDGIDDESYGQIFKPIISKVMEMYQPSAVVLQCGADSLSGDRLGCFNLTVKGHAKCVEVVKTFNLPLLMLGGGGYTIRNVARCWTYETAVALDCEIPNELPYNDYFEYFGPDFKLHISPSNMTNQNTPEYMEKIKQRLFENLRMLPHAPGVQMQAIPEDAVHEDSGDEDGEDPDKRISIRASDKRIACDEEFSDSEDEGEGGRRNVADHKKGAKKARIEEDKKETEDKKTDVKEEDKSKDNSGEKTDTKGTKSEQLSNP
Sequence of Histone deacetylase 5 (Q9UQL6 whole entry): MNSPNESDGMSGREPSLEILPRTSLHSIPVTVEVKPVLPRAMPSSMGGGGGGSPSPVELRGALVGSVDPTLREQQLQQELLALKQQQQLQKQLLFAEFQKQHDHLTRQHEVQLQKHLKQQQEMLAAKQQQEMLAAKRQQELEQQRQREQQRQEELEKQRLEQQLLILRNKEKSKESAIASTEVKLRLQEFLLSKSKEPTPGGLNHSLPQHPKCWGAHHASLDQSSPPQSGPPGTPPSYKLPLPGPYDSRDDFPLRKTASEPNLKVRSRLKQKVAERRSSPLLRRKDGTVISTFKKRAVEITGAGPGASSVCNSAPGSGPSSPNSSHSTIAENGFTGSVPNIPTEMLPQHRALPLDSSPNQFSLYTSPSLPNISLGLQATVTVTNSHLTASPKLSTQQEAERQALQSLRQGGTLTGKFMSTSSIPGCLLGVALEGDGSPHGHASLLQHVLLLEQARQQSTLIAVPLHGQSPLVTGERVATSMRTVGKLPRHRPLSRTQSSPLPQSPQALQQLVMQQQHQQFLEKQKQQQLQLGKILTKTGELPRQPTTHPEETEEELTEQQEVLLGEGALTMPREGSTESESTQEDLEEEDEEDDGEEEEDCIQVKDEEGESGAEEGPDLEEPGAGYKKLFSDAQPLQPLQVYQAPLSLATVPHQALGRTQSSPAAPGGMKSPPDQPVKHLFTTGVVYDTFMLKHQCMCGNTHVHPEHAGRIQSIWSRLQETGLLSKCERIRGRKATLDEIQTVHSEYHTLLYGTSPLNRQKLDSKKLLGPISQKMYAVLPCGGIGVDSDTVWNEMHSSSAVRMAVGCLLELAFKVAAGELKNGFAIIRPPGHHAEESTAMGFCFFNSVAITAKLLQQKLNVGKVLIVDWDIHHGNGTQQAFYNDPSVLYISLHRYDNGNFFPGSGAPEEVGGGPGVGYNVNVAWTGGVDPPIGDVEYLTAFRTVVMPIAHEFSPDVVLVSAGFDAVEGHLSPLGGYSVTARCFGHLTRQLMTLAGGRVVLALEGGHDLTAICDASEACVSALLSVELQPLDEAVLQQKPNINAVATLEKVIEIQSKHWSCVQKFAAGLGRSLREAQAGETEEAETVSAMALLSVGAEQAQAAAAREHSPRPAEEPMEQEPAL
Sequence of Protein deacetylase HDAC6 (Q9UBN7 whole entry): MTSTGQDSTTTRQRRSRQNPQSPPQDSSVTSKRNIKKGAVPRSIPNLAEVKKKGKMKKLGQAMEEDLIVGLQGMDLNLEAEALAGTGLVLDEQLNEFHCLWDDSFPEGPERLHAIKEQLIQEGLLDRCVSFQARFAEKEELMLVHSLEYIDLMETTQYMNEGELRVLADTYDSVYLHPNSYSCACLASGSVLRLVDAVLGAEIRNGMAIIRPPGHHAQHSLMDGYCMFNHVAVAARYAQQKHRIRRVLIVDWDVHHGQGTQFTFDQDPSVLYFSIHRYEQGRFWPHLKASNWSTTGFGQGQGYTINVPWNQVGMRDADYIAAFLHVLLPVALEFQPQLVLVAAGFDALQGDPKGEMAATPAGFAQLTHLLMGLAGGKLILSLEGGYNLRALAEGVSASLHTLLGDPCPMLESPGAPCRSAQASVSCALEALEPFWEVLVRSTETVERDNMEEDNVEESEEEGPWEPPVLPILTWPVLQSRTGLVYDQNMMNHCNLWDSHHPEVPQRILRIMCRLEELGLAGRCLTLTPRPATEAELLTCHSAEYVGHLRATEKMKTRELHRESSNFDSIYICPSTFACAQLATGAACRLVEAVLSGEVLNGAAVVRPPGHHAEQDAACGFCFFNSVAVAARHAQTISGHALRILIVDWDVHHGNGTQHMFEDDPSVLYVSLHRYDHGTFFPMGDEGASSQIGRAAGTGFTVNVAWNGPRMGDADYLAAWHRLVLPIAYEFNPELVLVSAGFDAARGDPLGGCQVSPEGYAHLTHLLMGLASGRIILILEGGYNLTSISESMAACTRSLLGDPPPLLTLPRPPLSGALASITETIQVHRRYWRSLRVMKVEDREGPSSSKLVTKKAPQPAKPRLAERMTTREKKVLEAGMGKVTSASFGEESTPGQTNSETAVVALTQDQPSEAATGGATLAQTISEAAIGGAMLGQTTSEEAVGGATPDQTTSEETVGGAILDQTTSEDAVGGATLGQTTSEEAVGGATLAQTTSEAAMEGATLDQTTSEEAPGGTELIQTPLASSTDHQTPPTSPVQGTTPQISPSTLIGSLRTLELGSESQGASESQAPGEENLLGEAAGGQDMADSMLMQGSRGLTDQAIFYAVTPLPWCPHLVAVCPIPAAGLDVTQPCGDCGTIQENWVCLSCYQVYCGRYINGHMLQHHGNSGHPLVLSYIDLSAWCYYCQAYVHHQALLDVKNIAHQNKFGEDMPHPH
Sequence of Interstitial collagenase (P03956 whole entry): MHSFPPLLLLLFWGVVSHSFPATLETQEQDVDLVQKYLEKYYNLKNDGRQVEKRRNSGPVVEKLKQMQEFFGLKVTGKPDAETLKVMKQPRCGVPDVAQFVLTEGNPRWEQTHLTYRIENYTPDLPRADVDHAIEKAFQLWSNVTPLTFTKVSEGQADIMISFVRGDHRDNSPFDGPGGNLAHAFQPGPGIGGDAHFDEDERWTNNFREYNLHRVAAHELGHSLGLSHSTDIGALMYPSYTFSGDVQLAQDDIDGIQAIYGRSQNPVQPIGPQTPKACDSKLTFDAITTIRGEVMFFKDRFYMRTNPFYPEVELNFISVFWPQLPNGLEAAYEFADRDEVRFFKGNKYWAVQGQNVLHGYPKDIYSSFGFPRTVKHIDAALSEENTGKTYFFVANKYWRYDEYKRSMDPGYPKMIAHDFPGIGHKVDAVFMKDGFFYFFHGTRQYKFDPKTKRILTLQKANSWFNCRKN

On to `C[Si](C)(C)c1cccc(C(=O)C(F)(F)F)c1`, for which, in series [1], the Ki (in general, a dissociation constant, usually derived from enzyme kinetics or from competition with a known ligand) came out at 0.047 nM. The ED50 (as a rule, the midpoint of the dose-response relation) in series [2] was determined as 2.5 mg/kg. Further, the LD50 (commonly the dose expected to kill half of the subjects tested) in series [3] is 180 mg/kg.
On to `CC(C)OC(=O)/C(=N/NC(=O)c1ccc(CO[Si](C)(C)C(C)(C)C)o1)c1ccccc1`, for which the IC50 – broadly, the concentration needed to halve the response being measured – was determined as 3600 nM in [4], 3500 nM in series [5], 3600 nM in [6] and 40100 nM in series [7].
For the compound `C[Si](O)(O)CCCCCCC(=O)Nc1ccccc1`, the IC50 in series [8], in series [9], in series [10], in [11] and in series [12] was 600 nM each time.
As to `C[Si](C)(C)n1c(=S)c(=P(c2ccccc2)(c2ccccc2)c2ccccc2)/c1=N/c1ccccc1`, the IC50 in [13] is approximately 41 nM.
As to `CCCC[Si](CC)(CCCC)OCC[N+](C)(C)C.[I-]`, the IC50 in series [14] was determined as 3 µg/mL; in series [15], 1 µg/mL.
On to `C[Si](C)(C)CCC[n+]1ccsc1N.[I-]`, for which the Activity in series [16] was 55%. This compound also displayed an IC50 in [17] of 10 nM.
`CCS(=O)(=O)c1cccnc1-c1nc2cc(S(=O)(=O)C(F)(F)F)ccc2o1`: the LC50 – broadly, the concentration that kills 50% of the test population – in [18] amounted to 4.68 µg/mL (≈ 11.1 µM); in series [19] it was 0.21 µg/mL (≈ 0.5 µM).
Turning to `COc1ccc(-c2cc(CNCCC[Si-]345OCC[N+]3(CCO4)CCO5)on2)cc1` (centres undefined), the minimum inhibitory concentration (MIC) (in general, the lowest concentration found to suppress growth) is 12.5 µg/mL (≈ 29.8 µM) in [20] and 6.2 µg/mL (≈ 14.8 µM) in series [21].
Take `C[Si]1(Cl)C=CC(=O)C1=P(c1ccccc1)(c1ccccc1)c1ccccc1` (centres undefined): in series [22], the IC50 came out at 113 nM.
With `C[Si](C)(C)CNc1ccnc2cc(Cl)ccc12`, the IC50 in series [23] came to 248 nM; in series [24], 525 nM; in [25], 4410 nM.
On to `CC(C)OP(=O)(NCCC[Si-]123OCC[N+]1(CCO2)CCO3)OCCn1c(=O)c(F)cn(C2CCCO2)c1=O` (centres undefined), for which the inhibition at 5 µg/mL in [26] and in series [27] was 29.3% each time.
As to `COc1ccc([Si](C)(C)[C@@H]2[C@@H](CCn3cc(CCO)nn3)O[C@]3(C(=O)N4c5c(ccc(OC)c53)C(C)=CC4(C)C)[C@H]2C)cc1`, the figures for the EC50 in series [28] and in series [29] were 42800 nM and 32500 nM, respectively.
As for `C/C(=C(\OC(=O)C(C)(C)C)c1c(C)c(C)nn1C)c1ccc([Si](C)(C)C)cc1`, the LC50 in series [30] worked out at 0.062 ng/mL (≈ 0.000156 µM).
In the case of `O=C(NCCC[Si-]123OCC[N+]1(CCO2)CCO3)c1cc2c([nH]1)CCCC2` (centres undefined), the MIC in series [31] was 62.5 µg/mL (≈ 165 µM).
For `CC1C[N+]23CC(C)O[Si-]2(CCC/N=C/c2cccc([N+](=O)[O-])c2)(O1)OC(C)C3` (centres undefined), the IC50 in series [32] was determined as 12.5 µg/mL (≈ 30.7 µM); in series [33], 11.8 µg/mL (≈ 29 µM); in series [34] it was 12.3 µg/mL (≈ 30.2 µM).
